Tests used:
ME-1 cells = test: MTT viability assay, growth of ME-1 cells; assay type: cell-based, human
From the text: (§1) We have tested several of the compounds we have synthesized for their effects on ME-1 cells, a leukemia cell line harboring the inv(16) (Yanagisawa, Horiuchi et al. 1991). […] AI-4-57 has also been tested against the Kasumi-1, Jurkat, and RS4; 11 leukemia cell lines (FIG. 4.B). […] We have also examined effects on apoptosis using flow cytometry to measure Annexin V/PI (propidium iodide) positivity. […] The selectivity for specific cell lines and the correlation of activity in the FRET assay with effects on inv(16) cells all support the hypothesis that the compounds are hitting the desired target.
The dimer with a 7 atom linker (AI-4-62) has been tested for effects on the growth of the ME-1 cell line (see FIG. 7), a leukemia cell line with the inv(16).

[1] = test system: inv(16) repression (CBFβ-SMMHC) at RUNX binding site reporter; test: Luciferase reporter assay of inv(16) repression; assay type: cell-based; settings: FIG. 10
From the text: A luciferase reporter assay has been developed to test the effects of inhibitors on inv(16) repression. Expression of luciferase is driven by multiple copies of a RUNX binding site using endogenous RUNX and CBFβ. CBFβ-SMMHC is expressed in these cells, resulting in repression of luciferase expression.

CDKN1a gene expression = CDKN1a gene expression by RT-PCR in ME-1 cells; assay type: cell-based, human; settings: 10, 5 and 2.5 μM, FIG. 9
From the text: The effects of the dimeric inhibitor AI-4-83 on CDKN1a gene expression were examined using RT-PCR. […] In addition, the effect of AI-4-83 is much more substantial than that for the monomeric compound, supporting the increased efficacy of the dimeric versus monomeric compounds.

[2] = test system: human bone marrow mononuclear cells (BM MNCs); test: MTT assay on human bone marrow mononuclear cells; assay type: cell-based; settings: 48 hour treatment, up to 10 μM
Procedure: (§2) We have tested AI-4-83 on human bone marrow mononuclear cells (for toxicity) and on one inv(16) patient sample using an MTT assay after a 48 hour compound treatment.

[3] = test system: normal bone marrow mononuclear cells; test: Effect on normal bone marrow mononuclear cells (control of the leukemia initiating cell test); assay type: cell-based
From the text: (§3) Dr. Lucio Castilla's lab has identified a specific population of cells referred to as leukemia initiating cells using mouse models of inv(16) leukemia (Kuo, Y. H., et al., Cbf beta-SMMHC induces distinct abnormal myeloid progenitors able to develop acute myeloid leukemia. Cancer Cell, 2006. 9(1): p. 57-68). […] Upon acquisition of such secondary mutations, these cells can progress to overt leukemia. These cells are also typically more resistant to traditional cytotoxic chemotherapy and therefore represent a pool of cells from which relapse can occur. We have tested AI-4-83 against this pool of cells and shown that the compound is very effective at inducing apoptosis in this population.

RS4; 11 cells = test: MTT assay, growth of RS4;11 cells; assay type: cell-based; settings: 10 μM, FIG. 8
From the text: as §1
(§4) Below are two exemplary dimeric compound formulas, shown here without the possible substituents indicated elsewhere herein.

Jurkat cells = test: MTT assay, growth of Jurkat cells; assay type: cell-based; settings: 10 μM, FIG. 8
From the text: as §1, §4

Kasumi-1 cells = test: MTT assay, growth of Kasumi-1 cells; assay type: cell-based; settings: 10 μM, FIG. 8
From the text: as §1, §4

[4] = test system: inv(16) patient sample cells; test: MTT assay on inv(16) patient sample; assay type: cell-based, human; settings: 48 hour treatment, 10 μM
Procedure: as §2

[5] = test system: inv(16) leukemia initiating cells; test: Apoptosis of inv(16) leukemia initiating cells from a mouse model; assay type: cell-based; settings: 3 day treatment, 2 μM, FIG. 12
From the text: as §3

SMILES: COc1ccc2[nH]c(-c3ccc(OCCOCCOc4ccc(-c5nc6cc(OC)ccc6[nH]5)nc4)cn3)nc2c1 [AI-4-62]
- inhibition at 10 µM (ME-1 cells; Homo sapiens, ME-1, 10 μM): 100%
- Potency of dimer relative to the corresponding monomer on ME-1 cells (ME-1 cells; MTT, FIG. 7): ~15 fold
- Luciferase activity [1]: dose-dependent increase in luciferase activity
- CDKN1a gene expression (CDKN1a gene expression): dose-dependent substantial increase
- Viability of bone marrow mononuclear cells [2]: no effect on the viability
- Effect on normal bone marrow mononuclear cells [3]: no effect
- Effect on RS4;11 cells (RS4; 11 cells): little to no effect
- Effect on Jurkat cells (Jurkat cells): little to no effect
- Effect on Kasumi-1 cells (Kasumi-1 cells): little to no effect
- Viability of inv(16) patient sample [4]: substantial effect
- Cell death of leukemia initiating cells [5]: 80%

— patent US8748618B2, “Inhibitors of inv(16) leukemia” (University of Virginia Patent Foundation, priority 2009, dated 2014)
